Laboratory results from US9757399B2, “Butyrylcholinesterase inhibitors” (priority 2006, dated 2017).

Experiments:
[1] = biological target: T1, butyrylcholinesterase (from horse serum) (Equus caballus, UniProt P81908); assay: Rates of inactivation of butyrylcholinesterase, Ellman assay; assay type: biochemical; conditions: 100 nM inhibitor, 25° C.
T1 construct: butyrylcholinesterase (from horse serum); purchased Sigma; host or cells: horse serum (natural source)
Experimental: Acetylcholinesterase (from electric eel), butyrylcholinesterase (from horse serum), DTNB, butyrylthiocholine, acetylthiocholine, and BSA were purchased from Sigma. The dialkyl 2-chlorophenyl (and 4-chlorophenyl) phosphates were solubilized in reagent grade methanol.
Cholinesterase activity measurements were performed essentially according to the method of Ellman (Biochemical Pharmacology 7:88-90, 1961). The composition of the assay mixture was 0.1 M sodium phosphate, pH 7.5, 0.033 M DTNB, 0.001 M MgCl2, and 100 μg/mL of BSA containing appropriate amounts of substrate and inhibitor. Each assay was initiated by the addition of substrate and the activity quantified by measuring the formation of the thionitrobenzoate anion at 412 nm at 37° C. Methanol used to solubilize the dialkyl phenyl phosphates [1% (v/v) final concentration] had no inhibitory effect on either enzyme.
Butyrylcholinesterase was pre-incubated at room temperature with inhibitor in the assay cocktail minus substrate for varying periods of time at 25° C. Substrate was then added and the activity measured as described above. The relative rates of enzyme inactivation were determined by plotting enzyme activity versus time of pre-incubation with inhibitor. Results were expressed as the rate constant for the rate of enzyme inactivation. In the case of AcChase, results were expressed as the % of activity remaining relative to the enzyme incubated only with solvents.
. […] In Table 2, BuChase was incubated for increasing periods of time at 25° C. with 100 nM inhibitor then assayed for activity as described above. Rate constants were calculated from a plot of enzyme activity vs. time of inhibitor exposure. […]. Slopes were calculated by linear regression analysis.

[2] = biological target: T2, butyrylcholinesterase (Equus caballus, UniProt P81908); assay: Reactivation of inactive butyrylcholinesterase; assay type: biochemical, horse
T2 construct: butyrylcholinesterase (from horse serum); purchased Sigma; host or cells: horse serum (natural source)
T2 sequence (P81908 whole entry): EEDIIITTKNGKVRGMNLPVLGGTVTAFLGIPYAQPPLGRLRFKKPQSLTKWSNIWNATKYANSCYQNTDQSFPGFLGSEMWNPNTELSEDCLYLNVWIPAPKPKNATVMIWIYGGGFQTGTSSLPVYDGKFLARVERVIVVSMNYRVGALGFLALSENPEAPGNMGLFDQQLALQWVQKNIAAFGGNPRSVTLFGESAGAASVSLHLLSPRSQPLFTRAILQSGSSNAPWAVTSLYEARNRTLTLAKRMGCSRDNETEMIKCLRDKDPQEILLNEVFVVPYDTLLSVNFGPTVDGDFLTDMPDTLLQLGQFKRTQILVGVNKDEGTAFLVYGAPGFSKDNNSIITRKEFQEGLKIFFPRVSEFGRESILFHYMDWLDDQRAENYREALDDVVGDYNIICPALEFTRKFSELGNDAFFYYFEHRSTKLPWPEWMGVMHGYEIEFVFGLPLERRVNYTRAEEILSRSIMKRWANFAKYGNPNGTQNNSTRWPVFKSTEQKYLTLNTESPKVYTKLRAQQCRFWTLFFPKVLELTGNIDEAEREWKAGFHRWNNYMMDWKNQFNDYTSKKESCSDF
Experimental: BuChase was incubated with excess di-butyl 2-chlorophenyl phosphate for 60 min at 4° C. The excess phosphate was removed using a desalting column. The inactivated BuChase was incubated at 4° C. for various periods of time and then assayed for activity. […]

[3] = system: chymotrypsin; assay: Chymotrypsin activity (ATEE hydrolysis); assay type: biochemical; conditions: 10 μM, 60 minutes at 25° C.
Experimental: The effect of DB2ClPP on the activity of chymotrypsin was assayed. […] was incubated with solvent, 10 μM DB2CPP, or 10 μM PMSF (a known inhibitor of chymotrypsin) for 60 minutes at 25° C. to determine any inhibitory effect of DB2CPP on enzymatic activity. Enzyme activity is given as nmoles of ATEE hydrolyzed per minute at 25° C. Data shown are the mean of three replicates ±SEM. (FIG. 4)

[4] = system: Protein Kinase A (PKA); assay: Protein kinase A activity (histone substrate, Pro-Q stain); assay type: biochemical; conditions: varying concentrations, 30 minutes on ice, then ATP 30° C. 15 minutes
Experimental: For protein kinase activity, histone was used as the substrate for protein kinase A (PKA) and glutathione-S-transferase-S6 (GST-S6) for S6K2. Enzyme was pre-incubated with substrate and varying concentrations of inhibitor on ice for 30 minutes. The control sample contained solvent (methanol). ATP was then added to each sample and the cocktail incubated at 30° C. for 15 minutes. Equal amounts of each mixture were fractionated by SDS-PAGE on a 10% acrylamide gel. The gel was fixed in 50% methanol/10% acetic acid, washed with water, and then stained in Pro-Q Stain in the dark for 60 minutes. The gel was then destained, washed, and scanned on a Typhoon Imager (FIG. 5).

[5] = system: hexokinase; assay: Hexokinase activity (NADPH generation); assay type: biochemical; conditions: 10 μM, 60 min at 25° C.
Experimental: The effect of DB2ClPP on hexokinase activity was assayed. Hexokinase was incubated with solvent, 10 mM iodoacetamide (a known hexokinase inhibitor), or 10 μM DB2CPP for 60 min at 25° C. Enzyme activity is given as the nmoles of NADPH generated per min at 25° C. Data shown are the mean of three replicates ±SEM. (FIG. 6)

T1 sequence (P81908 whole entry): as above

## CCCCOP(=O)(OCCCC)Oc1ccccc1Cl [DB2ClPP, Di-n-butyl 2-chlorophenyl phosphate]
[1]
  k, rate constant of inactivation of butyrylcholinesterase ± S.E.M: 64.76 ± 3.0 min^−1 × 10^−2
[2]; 0 hours at 4° C. after removal of excess inhibitor
  % Remaining Activity: 0.6%
[2]; 3.5 hours at 4° C. after removal of excess inhibitor
  % Remaining Activity: 0.6%
[2]; 7 hours at 4° C. after removal of excess inhibitor
  % Remaining Activity: 0.8%
[2]; 24 hours at 4° C. after removal of excess inhibitor
  % Remaining Activity: 1.1%
[2]; over 24 hours at 4° C.
  reactivation of inactivated BuChase: no significant reactivation
[3]
  effect on chymotrypsin activity (FIG. 4): none of the above mentioned enzymes were affected
[4]
  effect on PKA activity (FIG. 5): none of the above mentioned enzymes were affected
[5]
  effect on hexokinase activity (FIG. 6): none of the above mentioned enzymes were affected
